A word on the melting point: it is the temperature, or range, at which the solid turns liquid.

The values that follow come from a melting point compilation (Tetko et al.).

For this data set the following is noted: a range is the spread between reports.

`c1ccc(Nc2ccc(-c3ccc(Nc4ccccc4)cc3)cc2)cc1` came in with a melting point of 247 to 248 °C.
The result for `Nc1ccc(N)c2c1C(=O)c1ccccc1C2=O` reads 263 to 268 °C.
The result for `CC(=O)Nc1ccc(F)cc1` reads 152 to 154 °C; that for `CC(N)(CO)CO`, 110 to 111 °C.
The result for `OC1CCCCC1` reads 21 to 25.9 °C; that for `Cc1ccc2ccccc2c1`, 33 to 34.4 °C.
Regarding `Cc1cccc(N)c1C`, the melting point lay within 2 to 3 °C.
`CCOC(=O)c1cc2ccccc2[nH]1` had a melting point of 124 °C.
The result for `c1ccc2cnncc2c1` reads 90.5 to 91 °C; that for `O=C(O)CCCCCCCCCCCCCCCO`, 98 to 99 °C; that for `CCC1CC1`, -149 °C.
For `O=C(O)COCC(=O)O`, the melting point lay in the range of 143 to 148 °C.
The same measure for `Cc1c(N)cccc1Cl`: 1 to 2 °C; for `Nc1ccc(Cc2ccc(N)cc2)cc1`: 90 to 92.5 °C.
The same measure for `Cc1cc(O)cc(O)c1`: 107 to 108 °C; for `Nc1ccc2c(c1)Cc1ccccc1-2`: 128 to 129 °C; for `O=[N+]([O-])c1cccc2cccc([N+](=O)[O-])c12`: 172 to 173 °C.
For the molecule `O=[N+]([O-])c1cc(C(F)(F)F)cc([N+](=O)[O-])c1Cl`, the melting point was in the range of 56 to 57 °C.
The same measure for `Nc1ccc(O)cc1`: 188 to 189 °C; for `Nc1ccc(S(=O)(=O)Nc2nccs2)cc1`: 200 to 202 °C.
The same measure for `Cc1cc(O)ccc1Br`: 59 to 64 °C; for `O=C1NC(=O)c2c1cccc2[N+](=O)[O-]`: 214 to 219 °C; for `O=C(O)c1cc(-c2ccc(F)cc2F)ccc1O`: 210 to 216 °C.
The result for `Nc1ccc(F)cc1` reads -2 to -0.8 °C; that for `c1ccc(Cc2ccncc2)cc1`, 10 to 12.4 °C; that for `COC(=O)CCC(=O)OC`, 19 to 19.5 °C.
In turn, `COc1cc(Cl)cc(OC)c1` came in with a melting point of 34 to 35 °C.
The result for `COC(=O)c1ccc(Br)cc1` reads 79 to 81 °C; that for `Clc1ccc(Br)cc1Cl`, 24 to 25 °C.
The molecule `CC1=CC(=O)c2ccccc2C1=O` showed a melting point of 102 to 107 °C.
The result for `O=Cc1ccc(O)cc1O` reads 135 to 136 °C; that for `C=C(C)C`, -140 °C.
The molecule `Cc1ccc(C#N)cc1` yielded a melting point of 28 to 29.5 °C.
The same measure for `OC1CCc2ccccc21` (configuration not stated): 52 to 54.8 °C; for `NS(=O)(=O)c1cc(C(=O)O)ccc1Cl`: 257 to 258 °C.
The result for `O=C1C(=O)c2ccccc2-c2ccccc21` reads 206 to 210 °C.
The same measure for `O=C(O)c1cc([N+](=O)[O-])cc([N+](=O)[O-])c1`: 205 to 206 °C; for `CC(C)(C)c1cc(C=O)cc(C(C)(C)C)c1O`: 186 to 188 °C; for `c1c[nH]cn1`: 90 to 90.5 °C.
`O=C1C=CC(=O)C2C3C=CC(C3)C12` (configuration not stated) returned a melting point of 73 to 77.5 °C.
In the case of `CC(=O)c1ccc(Br)s1`, the melting point is 94.5 to 95 °C.
The result for `CC(=O)NCCCCCC(=O)O` reads 104 °C; that for `C[Si](C)(C)C`, -100 to -99 °C.
The result for `CCCCC(C)(C)C` reads -121 °C; that for `NC(=S)Nc1ccccc1`, 149 to 154 °C.
Regarding `OCc1ccccc1Cl`, the melting point was in the range of 70 to 73 °C.
For the molecule `Fc1cc(F)c(F)c(F)c1F`, the melting point was -48 to -47.3 °C.
`Cc1ccc([N+](=O)[O-])cc1N`: the melting point is 106 to 108 °C.
The same measure for `Cc1cccc(O)c1C`: 71.5 to 75 °C; for `Nc1ccccc1Oc1ccccc1`: 45.8 to 47 °C.
`O=C(Cl)CCCCCCCCC(=O)Cl`: the melting point was -5 to -2.5 °C.
The result for `CCc1ccc(Br)cc1` reads -43.5 to -43 °C; that for `CCC(C)C`, -160 °C; that for `Oc1c(Br)cccc1Br`, 55 to 56.5 °C.
The same measure for `CC(=O)C1C(=O)C=C(C)OC1=O` (configuration not stated): 109 to 111 °C.
The result for `CCC(=O)OC` reads -88 to -87.5 °C; that for `CC(C)c1cc(C(C)C)cc(C(C)C)c1`, -7.4 to -7 °C; that for `CCCCCCCCCCCCCCCCCCBr`, 28 to 28.2 °C.
`CCCCCCCCCCCCC=O` registered a melting point of 14 to 15 °C.
Regarding `CCc1ccc2ccccc2c1`, the melting point was -7.45 to -7.35 °C.
The same measure for `Cc1ccc(S(=O)(=O)NC2CCCCC2)cc1`: 84.5 to 88 °C; for `CC(=O)Nc1cccc(C)c1`: 65 to 65.5 °C.
The result for `O=C(O)C=Cc1ccc(Cl)cc1` reads 248 to 249 °C; that for `O=Cc1ccccc1C=O`, 56 to 56.5 °C.
The same measure for `O=C(O)CCCC(=O)c1ccccc1`: 127 °C; for `O=S(=O)(Cl)c1ccc(Cl)cc1`: 51 to 52 °C.
`O=CC=Cc1ccco1` yielded a melting point of 51 to 54 °C.
Molecule `CC(C)(C)C(C)(C)C` had a melting point of 101 °C.
The result for `CCCCCCC(O)CCCC` (configuration not stated) reads -4 to -3.5 °C; that for `CCC1=CCCCC1`, -110 °C; that for `Nc1ccc(Cl)cc1`, 70 to 72.5 °C.
The result for `CS(=O)(=O)c1ccc(C(=O)O)cc1` reads 270 to 273 °C.
The molecule `Nc1ccc(Br)cc1[N+](=O)[O-]` yielded a melting point of 112 °C.
The result for `CC(C)(C)OC(=O)NCC(=O)O` reads 87.5 to 89 °C; that for `COc1cc(C(=O)O)cc(OC)c1O`, 205 to 208 °C; that for `COc1ccccc1N`, 5 to 6.2 °C.
The same measure for `Nc1cccc(O)c1`: 123 to 125 °C; for `CN(C)c1ccncc1`: 111 to 112 °C.
The same measure for `N#Cc1ccccc1Cl`: 45 to 46.3 °C; for `Clc1ccc(Br)cc1`: 65 to 68 °C; for `CCCc1ccccc1`: -100 to -99 °C.
As for `Cc1ccc(F)cc1[N+](=O)[O-]`, the melting point is 26 to 27 °C.
In turn, `c1ccc2cc(-c3ccc4ccccc4c3)ccc2c1` had a melting point of 187 to 188 °C.
In turn, `CC(C)c1cccc(C(C)C)c1` had a melting point of -63.1 to -63 °C.
The result for `O=Cc1ccc(O)cc1` reads 117 to 118 °C; that for `SCCS`, -41.2 to -41 °C.
The result for `OCc1ccncc1` reads 53 to 54 °C; that for `C(=C\c1ccccc1)/c1ccccc1`, 123 to 126 °C.
The same measure for `Oc1ccc(-c2ccccc2)cc1`: 165 to 167 °C; for `Cc1nnc(N)s1`: 224 to 225 °C; for `C=Cc1cccc(C)c1`: -86.3 to -82 °C.
As for `NC(=O)c1ccc(Cl)cc1`, the melting point is 173 to 178 °C.
The same measure for `c1cc[nH]c1`: -23.4 °C; for `CC(CCC(=O)O)(c1ccc(O)cc1)c1ccc(O)cc1`: 172 to 173 °C.
As for `CCSC`, the melting point was -106 °C.
`FC(F)(F)CC(F)(F)F` had a melting point of -98 to -94.2 °C.
The result for `COc1c(F)c(F)c(F)c(F)c1F` reads -38 to -37 °C; that for `COc1cc(C(=O)O)cc(O)c1OC`, 195 to 196 °C; that for `c1ccc2c(c1)CCC2`, -51.4 to -51 °C.
The same measure for `CC(C)C=O`: -65.9 to -65 °C; for `O=C(Cl)c1ccc(C(=O)Cl)cc1`: 81 to 83.5 °C.
The same measure for `O=Cc1cc(Cl)ccc1O`: 100 to 101 °C.
The molecule `O=C(O)c1ccc(C(F)(F)F)cc1` showed a melting point of 220 to 221 °C.
The result for `Cc1c(Cl)cccc1[N+](=O)[O-]` reads 36 to 37.8 °C.
The same measure for `N#CCC(=O)c1ccccc1`: 80.5 to 83 °C; for `CCCCBr`: -112 °C.
In turn, `CC(=O)Nc1ccccc1O` showed a melting point of 205 to 208 °C.
The same measure for `CN1CC=C(c2ccccc2)CC1`: 38.5 to 40 °C; for `CC(C)(C)C`: -17 to -16.4 °C; for `ClCCCCCl`: -38 to -37 °C.
The result for `Cc1ccccn1` reads -70 to -66.7 °C; that for `Nc1ccc(-c2ccccc2)cc1`, 53 to 54 °C; that for `N#CCc1ccc(CC#N)cc1`, 95 to 96 °C.
`O=C(O)CCCc1ccc(N(CCCl)CCCl)cc1` displayed a melting point of 64 to 65 °C.
The result for `CCC1(c2ccccc2)C(=O)NC(=O)NC1=O` reads 174 to 176 °C; that for `NC(=O)c1ccc(C(F)(F)F)cc1`, 184 to 185 °C.
The same measure for `C=C(Cl)C(=O)O`: 65 to 66 °C.
The same measure for `Cc1ccc(O)cc1Cl`: 52 to 55.5 °C; for `NC(=O)c1ccccc1O`: 140 to 142 °C.
In turn, `CCCCCO` had a melting point of -79 to -78 °C.
The result for `CCCCCCCCCCCCCCCCCCCCCCCCCCCCCCCCCCCCCCCC` reads 81 to 82 °C.
The result for `N#CCC#N` reads 32 to 34 °C.
The result for `CC(C)S` reads -131 to -130 °C; that for `ClC(Cl)C(Cl)Cl`, -44 to -43 °C; that for `Clc1nc(Cl)nc(Nc2ccccc2Cl)n1`, 160 °C.
In the case of `Nc1ccc([N+](=O)[O-])cn1`, the melting point is 187 to 188 °C.
With `C=CCC`, the melting point is -185 °C.
The same measure for `Cc1csc(N)n1`: 44 to 45.5 °C.
The result for `CC(=O)Nc1ccc(C#N)cc1` reads 205 to 207 °C.
The same measure for `FC(F)(F)c1ccc(Cl)cc1`: -36 to -33 °C; for `O=C(O)c1ccc([N+](=O)[O-])o1`: 184 to 187 °C.
In turn, `Nc1ccc([N+](=O)[O-])cc1N` showed a melting point of 199 to 201 °C.
The same measure for `C=CBr`: -139 to -138 °C; for `O=[N+]([O-])c1ccc(F)cc1O`: 33 to 36 °C.
Consider `Cc1occc(=O)c1O`, for which the melting point lay within 162 to 163 °C.
The same measure for `Cc1c[nH]cn1`: 51 to 56 °C; for `NCc1ccncc1`: -8 to -7.6 °C; for `CCC(C)(C)Cl`: -74 to -73 °C.
Molecule `CC(=O)Nc1ccc(C=O)cc1` registered a melting point of 156 to 160 °C.
The same measure for `Nc1ccc(F)c(Cl)c1`: 45.5 to 46 °C; for `O=[N+]([O-])c1ccc(Br)cc1`: 126 to 127 °C.
The result for `CCCCCCCCCCC1CCCCC1` reads -2 to -1.7 °C.
